Columns and labels:
[1] = biological target: RNA-directed RNA polymerase (Hepacivirus hominis, UniProt O39930); test: Inhibitory concentration against Hepatitis C virus-RNA-dependent RNA polymerase
[2] = biological target: Human immunodeficiency virus type 1 reverse transcriptase (Human immunodeficiency virus 1, UniProt Q72547); test: Inhibitory concentration against HIV-Reverse transcriptase

Chain of RNA-directed RNA polymerase (O39930 whole entry): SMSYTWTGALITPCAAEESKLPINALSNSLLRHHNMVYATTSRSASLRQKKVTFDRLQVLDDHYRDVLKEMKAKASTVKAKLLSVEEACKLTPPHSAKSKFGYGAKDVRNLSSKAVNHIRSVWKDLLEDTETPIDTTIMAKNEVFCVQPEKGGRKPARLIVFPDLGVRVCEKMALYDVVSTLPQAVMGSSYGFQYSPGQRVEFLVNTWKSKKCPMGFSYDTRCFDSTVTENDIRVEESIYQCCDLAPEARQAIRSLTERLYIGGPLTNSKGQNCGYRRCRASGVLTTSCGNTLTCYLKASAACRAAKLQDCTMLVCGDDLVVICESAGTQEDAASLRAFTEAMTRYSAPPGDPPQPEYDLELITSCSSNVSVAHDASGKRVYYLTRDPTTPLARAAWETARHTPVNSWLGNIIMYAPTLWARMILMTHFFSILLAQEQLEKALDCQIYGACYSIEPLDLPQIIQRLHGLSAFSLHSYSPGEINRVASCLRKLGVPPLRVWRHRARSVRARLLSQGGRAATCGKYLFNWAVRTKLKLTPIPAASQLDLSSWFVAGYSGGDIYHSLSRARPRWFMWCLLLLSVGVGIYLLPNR

| SMILES | IC50 [1] | IC50 [2] |
| --- | --- | --- |
| CCCCn1c(=O)c(C2=NS(=O)(=O)c3ccccc3N2)c(O)c2ccccc21 | 0.1 µM |  |
| C[N+]1(C)C[C@]23c4c5c6c7c8c9c%10c%11c%12c%13c%14c%15c%16c%17c%18c%19c%20c(c2c2c4c4c6c6c8c%10c8c%12c%10c%14c(c%15%19)c%12c%20c2c2c4c6c8c%10c%122)[C@@H]%18[C@H]2c4c6c8c%10c(c4-%17)[C@@H]%16[C@H]%13[C@@]%114C[N+](C)(C)C[C@]%104C=9[C@H]8[C@@H]7C5=C6[C@]23C1 | 0.31 µM | 1.4 µM |
| O=C(O)C1(C(=O)O)[C@]23c4c5c6c7c8c9c%10c%11c%12c%13c%14c%15c%16c%17c%18c%19c%20c(c2c2c4c4c6c6c8c%10c8c%12c%10c%14c(c%15%19)c%12c%20c2c2c4c6c8c%10c%122)[C@@H]%18[C@H]2c4c6c8c%10c(c4-%17)[C@@H]%16[C@H]%13[C@@]%114C(C(=O)O)(C(=O)O)[C@]%104C=9[C@H]8[C@@H]7C5=C6[C@@]213 | 3.2 µM | 1.2 µM |
| O=C(O)CN1C[C@@]23C4=C5c6c7c8c9c(c%10c%11c%12c%13c%14c%15c%16c%17c%18c%19c%20c%21c%22c%23c(c6c6c8c8c%24c9c%11c9c(c%16%12)c%17c%11c%19c%12c%21c%23c6c8c%12c%11c9%24)[C@@H]5[C@@H]5C=%22[C@H]6c8c(c-%14c(c4c85)[C@@H]2[C@H]%13%10)[C@H]%15[C@@H]%18[C@@H]%206)[C@]73[C@@H]1C(=O)O | > 10 µM | 1 µM |
| CCCCCCCCCC[N@+]1(C)C[C@@]23c4c5c6c7c8c9c%10c%11c%12c%13c%14c%15c%16c%17c%18c%19c%20c%21c(c2c2c4c4c6c9c6c4c4c2c%21c2c%19c(c%18%14)c9c%13c%10c6c9c24)C2=C4c6c(c-%16c9c%10c6[C@H]([C@@H]5C7=C%10[C@]5(C[N+](C)(C)C[C@]8%115)[C@H]9[C@H]%15%12)[C@@]43C1)[C@@H]%17[C@H]2%20 | 1.4 µM | 1.3 µM |
| C[N+]1(C)C[C@]23c4c5c6c7c8c9c%10c%11c%12c%13c%14c%15c%16c%17c%18c%19c%20c%21c(c2c2c4c4c6c9c6c4c4c2c%21c2c(c%16%20)c%15c9c%13c%10c6c9c24)[C@@H]%19[C@H]2c4c6c9c%10c(c4-%18)[C@@H]%17[C@@H]%14C%12=C%10[C@]4(C[N+](C)(C)C[C@@]8%114)[C@H]9[C@@H]7C5=C6[C@]23C1 | 0.31 µM | 1.7 µM |
| C[N+]1(C)C[C@@]23C4=C5C6=C7c8c9c%10c%11c%12c%13c%14c%15c%16c%17c%18c%19c%20c%21c%22c%23c%24c%25c%26c%27c(c(c8c8c%10c%13c(c%278)c8c%14c%17c(c%24c%22%18)c%268)[C@@]72C1)[C@H]%25[C@@H]3C=%23[C@@H]4[C@H]%21c1c5c2c3c(c1-%20)[C@H]([C@H]%19%16)[C@@]1(C[N+](C)(C)C[C@]%12%151)C3=C%11[C@H]9[C@H]62 | 0.24 µM | 1.6 µM |
